# Measurements from patent publication US20050009925A1, “Use of norepinephrine reuptake inhibitors for the treatment of cognitive failure” (priority 2001, published 2005).
# Test system: c-fos
# Test: c-fos activation (Fos-like immunoreactivity) in rat brain after atomoxetine
# Assay type: in vivo
# Conditions: rats, 3 mg/kg i.p., two hours after administration
# Description: The immediate-early gene, c-fos, and its protein products have been increasingly utilized as markers for neuronal activation (Dragunow and Faull, J. Neurosci. Methods, 29, 261-265 (1989); Morgan and Curran, Prog. In Brain Res., 86, 287-294 (1990); Robertson, et al., J. Pharmacol. Exp. Ther., 271, 1058-1066 (1994)). C-fos activation is measured as illustrated below for atomoxetine.
# Two hours after administration of atomoxetine (3 mg/kg, i.p.), the rats were deeply anesthetized with sodium pentobarbital (60 mg/kg, i.p.) and transcardially perfused with 100 ml of phosphate buffered saline (PBS) followed by 100 ml of 4% paraformaldehyde in PBS. The brain was rapidly removed, postfixed for 90 min in 4% paraformaldehyde and then was transferred to 30% sucrose at […] until saturated. After quick freezing, serial 30 μm sections were cut and placed in PBS until processed for immunohistochemistry. In brief, sections were incubated in PBS containing blocking serum and 0.5% Triton-X 100 for 1 hour. Sections were then incubated with anti-Fos antibody (Santa Cruz Biotechnology, Inc.) at 4° C. overnight. Visualization of the Fos-like immunoreactivity was performed with a Vectastain ABC Elite Kit (Vector Labs, Burlingame, Calif.) using the standard protocol supplied with the kit. Nickel-intensified diaminobenzidine (DAB) was used as the chromagen to yield a gray-black precipitation product. Following visualization of the Fos immunoreactivity, the sections were mounted on gelatin-coated glass slides and allowed to dry. The sections were then dehydrated and cover slipped. Fos expressing cells were quantitated using the MCID M2 imaging system (Imaging Research, St. Catherines, Ontario).
smiles,measurement,setting,value
"CNCC[C@@H](Oc1ccccc1C)c1ccccc1 [Atomoxetine, (R)-(−)-N-methyl-3-(2-methylphenoxy)-3-phenylpropylamine]","Fos positive cells, Nucleus Accumbens",nucleus accumbens,152 ± 44 Fos positive cells/mm^2
same,"Fos positive cells, Prefrontal Cortex",prefrontal cortex,296 ± 26 Fos positive cells/mm^2
same,"Fos positive cells, Striatum",striatum,102 ± 35 Fos positive cells/mm^2
same,"expression of c-fos (regional pattern, in words)",summary of the table,increased the expression of c-fos only in the cortical areas
